Where “and” joins values, the source holds several entries; their conditions need not be identical. Equal entries are not always repeated.
Columns and labels:
[1] = test system: recurrent oral ulceration (ROU); experiment: In vivo effect of PLAG on recurrent oral ulceration in patients, self-reported scoring system; design: species or system human
Source text: Total 44 patients with recurrent oral ulceration (ROU) between 20 and 80 years old (34 female patients and 10 male patients, Disease; RAS ([…]), BD (27 patients), SLE (1 patient), Mean age: 49.3±9.0) were enrolled in the study. The diagnosis of ROU was made based upon the history and the physical examination on oral mucosa by physicians. We included three conditions with recurrent oral ulceration: Recurrent aphthous stomatitis (RAS), Behcet's disease (BD), Systemic lupus erythematosus (SLE). After completing baseline assessments, 250 mg of PLAG was administered to the patients orally twice a day (250 mg PLAG per tablet, 500 mg/day) for 2-4 weeks. The change of recurrent oral ulcer in the patients was evaluated at 2 or 4 weeks after the treatment by using self-reported scoring system (total 12 points), including the following three measurements: change of ulcer frequency (Likert 0-4), Change of ulcer severity: pain & size (Likert 0-4) and Change of ulcer duration (Likert 0-4).

sepsis animal model = conditions: cecal-ligation-puncture sepsis model; cited from earlier work
[2] = GLP toxicity test; cited from earlier work
[3] = test system: hematopoietic stem cells and megakaryocytes; conditions: cited from earlier work
[4] = 44 patients, relation to PLAG cannot be excluded
[5] = average of 44 patients, 500 mg/day orally, 2-4 weeks

CCCCC/C=C\C/C=C\CCCCCCCC(=O)OC(COC(C)=O)COC(=O)CCCCCCCCCCCCCCC (stereo not shown) [PLAG, 1-palmitoyl-2-linoleoyl-3-acetylglycerol]
side effect of PLAG ([1]; 44 patients, 500 mg/day orally, 2-4 weeks): any clear side effect of PLAG was not identified | patients with mild dyspepsia [1, 4]: two | patients with mild skin rash [1, 4]: one | patients with mild taste change (metallic taste) [1, 4]: one | effect on symptoms of oral ulceration ([1]; administration of PLAG to the patients): significantly improves the symptoms of oral ulceration | change of ulcer duration (Likert 0-4), average [1, 5]: 1.86±0.72 and 1.86 | change of ulcer frequency (Likert 0-4), average [1, 5]: 2.07±0.55 and 2.07 | change of ulcer severity: pain & size (Likert 0-4), average [1, 5]: 2.13±0.68 and 2.14 | total (sum of the three scores), average [1, 5]: 5.93±1.76 points and 5.93 points | significant improvement ([1]; individual patient, 1 or 0 from sum of the three scores): 1 (considered to be significantly improved when the sum of the three scores was more than 5 points) | survivability ratio of animals (sepsis animal model): increases survivability ratio of animals | toxicity [2]: no toxicity | growth-stimulating activities [3]: have growth-stimulating activities of hematopoietic stem cells and megakaryocytes
